{"source": "patent US12605407B2", "about": "“Methods to induce terminal differentiation in stem cells by interfering with DNA replication, methods of inducing pancreatic differentiation, and differentiated cells obtained thereof” (priority 2018, dated 2026)", "key": {"[1]": {"tested_on": "STZ-treated mice", "assay": "Protection from diabetes after ablation of mouse beta cells by streptozotocin, glucose tolerance test", "format": "in vivo", "method": "The human C-peptide levels in mouse serum were measured every two weeks in the fed state. Intraperitoneal glucose tolerance test was performed by fasting overnight and injecting 2 g/kg D-glucose solution at 2 weeks after mouse beta cells were ablated with one high dose (150 mg/kg) Streptozocin (Cat. No. S0130-1G, Sigma-Aldrich). Blood was collected in heparin-coated tube at fed state, fasting and 30 min after glucose injection. Plasma were collected by centrifuging tubes at 2000 g for 15 minutes at 4° C. The supernatants were collected for C-peptide and insulin detection with Mercodia M-Plex™ ARRAY Chemiluminescent Mercodia Beta Kit. Blood glucose levels was measured at fed state, fasting and every 30 minutes after glucose injection for 2 hours.\nThe ability of APH treated cells to protect mice from diabetes was determined after eliminating endogenous mouse beta cells by streptozotocin (STZ). STZ ablates mouse beta cells but is not toxic to human beta cells at the concentrations used. After STZ treatment, the blood glucose levels were monitored and grafted beta cells were challenged with high glucose to check their function. The blood glucose levels remained in the normal range over time in 3 out of 4 mice (FIG. 7E). Mice were tolerant to glucose and normalized blood glucose levels within 15 min of glucose injection (FIG. 7F). The secretion of human C-peptide and insulin decreased after fasting and increased after glucose injection (FIG. 7G)."}, "[2]": {"tested_on": "stem cell derived beta cells", "assay": "Stability of beta cell identity in long-term culture after removal of compound at day 27", "format": "cell-based, human", "method": "The beta cell clusters were dissociated using TrypLE™ Express into single cells. Cells were fixed with 4% PFA for 10 min and followed by permeabilization at −20° C. with cold methanol for 10 min. Primary antibodies were added at a dilution of 1:100 in autoMACs Rinsing Solution (Cat. No. 130-091-222, Miltenyi Biotec) containing 0.5% BSA at 4° C. for 1 hour. Secondary antibodies were added at a dilution of 1:500 at room temperature for 1 hour. The cells were filtered with BD Falcon 12×75 mm tube with cell strainer cap (Cat. No. 352235, BD) and subsequently analyzed by flow cytometer. Data were analyzed using Flowjo software. Negative controls were performed by only adding secondary antibodies.\nWith APH, a high proportion of cells in the islet-like clusters were positive for C-peptide and NKX6.1, a transcription factor for maintaining the beta cell identity and functional maturation (Schaffer et al., 2013). […] Beta cells were cultured for additional 7 days until about day 34 and 30 days until about day 60 upon removal of these compounds at day 27. […] In contrast, in APH treated cells, there was no decrease in C-peptide or NKX6.1 on day 34 (FIG. 5A). […] After further culturing of the cells for extra 30 days, very few of cells in control group remained GFP expression and were positive for C-peptide.\nThe ability of other DNA replication inhibitors to stabilize the beta cell identity was investigated. The expressions of GFP were maintained after releasing cells from these inhibitors for 7 days until day 34. With additional 30 days of culture, the expressions of GFP were reduced in all conditions at certain levels, but the cells treated with Cis and Eto expressed higher GFP than the cells treated with APH compared to the other conditions (FIG. 5E, FIG. 5F)."}, "[3]": {"tested_on": "stem cell derived beta cells", "assay": "Gene expression by quantitative realtime PCR in sorted insulin-GFP positive cells", "format": "cell-based, human", "source_text": "Total RNA was extracted from the cells at beta cell stage (d27) from different conditions using a RNeasy Mini Kit (Cat. No. 74106, QIAGEN). The total RNA was reverse transcripted into cDNA using iScript™ Reverse Transcription Supermix (Cat. No. 170-8841, Bio-Rad), and the cDNA were sequentially used as template with SsoFast™ EvaGreen® Supermix (Cat. No. 172-5202, Bio-Rad) for quantitative realtime PCR.\nBy the end of day 27, 30% of control cells were in cell cycle through G1 to M phase indicated by the expression of KI67 (a proliferation marker expressed in the cells within cell cycle) and amount of DNA content (FIG. 3A). […] The cell cycle gene expression in insulin expressing cells was also examined.\nInsulin positive cells were isolated based on GFP expression and the expressions of genes related to the maturation of beta cells including PDX1, NKX6.1, MAFA and insulin were evaluated (FIG. 6A). […] In addition, the C-peptide secretion was increased 2-6-fold, with an average of 3-fold, in response to high levels of glucose (FIG. 6D)."}, "[4]": {"conditions": "GFP positive cells from APH treated clusters versus GFP positive cells in control clusters"}}}
{"smiles": "C[C@@]1(CO)[C@H](O)CC[C@@]2(C)[C@H]1CC[C@H]1C[C@@H]3C[C@@]12CC[C@]3(O)CO", "note": "[APH, Aphidicolin]", "values": [{"measurement": "mice whose blood glucose levels remained in the normal range over time", "setting": "[1]; after STZ treatment, mice transplanted with APH treated cells", "result": "3 out of 4"}, {"measurement": "secretion of human C-peptide and insulin", "setting": "[1]; after fasting", "result": "decreased"}, {"measurement": "secretion of human C-peptide and insulin", "setting": "[1]; after glucose injection", "result": "increased"}, {"measurement": "time to normalized blood glucose levels after glucose injection", "setting": "[1]; glucose tolerance test, STZ-treated mice", "result": "≤ 15", "unit": "min"}, {"measurement": "percentage of C-peptide positive cells, and C-peptide and NKX6.1 double positive cells, relative to day 27 before releasing", "setting": "[2]; after 7 days of releasing cells from APH (day 34)", "result": "comparable"}, {"measurement": "C-peptide or NKX6.1", "setting": "[2]; day 34, APH removed on day 27", "result": "no decrease"}, {"measurement": "number of GFP and C-peptide positive cells compared to day 27 before removal", "setting": "[2]; day 60", "result": "decreased"}, {"measurement": "percentage of C-peptide positive cells", "setting": "[2]; day 60, APH treatment days 15-27", "result": "about 34%"}, {"measurement": "expression of MAFA at transcription level", "setting": "[3]; [4]", "result": "significantly upregulated"}, {"measurement": "expression of NKX6.1 at transcription level", "setting": "[3]; [4]", "result": "significantly upregulated"}, {"measurement": "expression of PDX1 at transcription level", "setting": "[3]; [4]", "result": "significantly upregulated"}, {"measurement": "expression of insulin at transcription level", "setting": "[3]; [4]", "result": "significantly upregulated"}, {"measurement": "expression of CDK4", "setting": "[3]; insulin positive cells", "result": "downregulated"}, {"measurement": "expression of Cyclin D1", "setting": "[3]; insulin positive cells", "result": "downregulated"}, {"measurement": "expression of P21", "setting": "[3]; insulin positive cells", "result": "upregulated"}]}
